The record followed here is patent US4863935A, “Mitomycin compounds having useful anti-tumor activity” (priority 1986, dated 1989).

Where only a bound is given, the exact number is not on record here.

In series [1] the test system is Sarcoma 180 solid tumour. Briefly: ED50 against Sarcoma 180 solid tumour implanted in mice. Type of series: in vivo, male mouse (ddy strain). The following applies: for (CI)c: (CI of test compound)/(CI of mitomycin C), CI = LD50/ED50; for ED50: Mus musculus, Sarcoma-180, iv, 168 h, i.v. (tail vein) 24 h after implantation, tumour volume at 7 days, dose for T/C of 0.5. The source says:
With regard to the so-called chemotherapeutic index viz. the CI value against sarcoma 180 solid tumour, expressed by the formula: […]
(§1) As used herein, the term "LD50 " denotes the acute toxicity. The term "ED50 " denotes the administered amount needed for reducing the volume of Sarcoma 180 solid tumours in animals to 50% of the corresponding tumour volume in control (untreated) animals. The term "WBC4000 " denotes the minimum dose of the drug needed to reduce the number of peripheral leucocytes to 4000/mm^3. A greater TI value results in a broader tolerance to the drug, which is advantageous for higher anti-tumour activity and decreased toxicity. The term "T" used herein denotes the average survival days of the test animals administered with the test compound. The term "C" denotes the average survival days of the control (untreated) animals. The term "OPD" denotes the dose of the drug resulting in the highest survival ratio. The term "ILS30 " denotes a 30% increase of life-span.
the term (CI)c denotes (CI of the test compound)/(CI of mitomycin C), and
5×10^6 sarcoma 180 solid tumor cells were abdominally implanted into ddy mice. 7 days after this, ascites cells were sampled. The cells were washed once with a sterilized physiological saline and were used to prepare a cell suspension containing 5×10^7 cells per ml of a sterilized physiological saline. On each occasion, 0.1 ml of the cell suspension was subcutaneously implanted under the skin of the right armpit of a male mouse (ddy strain; body weight 20±2 g). The test compound which was dissolved in a physiological saline with or without addition of Tween 80 was injected into the tail vein of each animal of a group consisting of 5 mice at a dose of 0.1-0.2 ml 24 hours after the implantation of the tumor cells.
The anti-tumor activity was determined in the following manner:
7 days after the implantation, the major axis (a) and the minor axis (b) of the tumour were measured to calculate a value of (a×b^2)/2 which corresponds to the volume of the tumour. The antitumour activity was expressed by the ratio of the volume of the tumour (T) of the group of animals administered with the test compound to the corresponding volume of tumours (C) of the untreated animals.
On graph paper, T/C was plotted on the ordinate using an arithmetic scale and the administered amount of test compound was plotted on the abscissa using a logarithmic scale. The relationship between the dose and T/C was shown by a straight line determined by the method of least squares, from which ED50 viz. a dose corresponding to T/C of 0.5 was obtained.

Series [2] relates to lymphocytic Leukemia P-388. Kind of series: Anti-tumour activity against lymphocytic Leukemia P-388 in mice. The class given is in vivo, mouse, female of CDF strain. The following applies: for (ILSmax)c: (ILSmax of test compound)/(ILSmax of mitomycin C), ILS=(T-C)/C×100; for (TI)c: (TI of test compound)/(TI of mitomycin C), TI = OPD/dose which results in ILS30; for ED (optimal dose, highest survival) / ED (30% increase of life-span): Mus musculus, P388, ip, i.p. 24 h after implantation; for ED (optimal dose, highest survival): dose resulting in the highest survival ratio, 30 days, read-out: OPD; for ED (30% increase of life-span): read-out: Dose needed to give ILS30.
Description: Also, their therapeutic indexes, expressed by the formula:
TI=(OPD)/(dose which results in ILS30),
against lymphocytic Leukemia P-388 and the maximum increased life spans (ILSmax), defined by the formula: […]
as §1
The experiment was carried out in the following manner. 1×10^6 lymphocytic Leukemia P-388 tumour cells were abdominally implanted into each mouse of a group consisting of 5 mice (body weight about 22 g; female of CDF strain). 24 hours after implantation, a physiological saline solution (0.2 ml) containing the test compound with or without addition of Tween 80 was abdominally given to the test animal.
Table 7 indicates anti-tumour activities of selected Compounds (I) against lyphocytic Leukemia P-388.

Series [3] is described as follows: LD50 acute toxicity, ddy mice, single abdominal injection. The conditions noted are these: mouse, in vivo, ip, 5 ddy mice, 14 days observation, Behrens-Koerber's method.
Description: as §1
LD50, ED50 and WBC4000 were respectively determined as follows:
Each animal of the test group, consisting of 5 ddy mice, was administered once with a test compound by abdominal injection. […] To determine the LD50 value, Behrens-Koerber's method was applied.

In general, ED50 refers to the dose at which the effect has come halfway, by size or by number of responders. Low values mean greater potency, high ones weaker potency. What is called LD50 is the dose at which mortality reaches 50%. Turning to `CO[C@@]12[C@H](COC(N)=O)C3=C(C(=O)C(C)=C(NCCSC(=O)NCc4ccccc4)C3=O)N1C[C@@H]1N[C@@H]12` [Compound 22, 7-N--(2-benzylaminocarbonylthioethyl)mitomycin C], in series [1], the “(CI)c” value is given as 1.44 and the 50% effect level (ED50) was put at a dose of 10.2 mg/kg. Moreover, in series [2], the “(ILSmax)c” value turned out to be 1.43; the “(TI)c” value was found to be 3.36; the ED (optimal dose, highest survival) came to 25 mg/kg; the ED (30% increase of life-span) came out at 0.62 mg/kg. For the same compound, in series [3], the LD50 at 336 h was 37.5 mg/kg.
As for `CCC(C)NC(=O)SCCNC1=C(C)C(=O)C2=C(C1=O)[C@@H](COC(N)=O)[C@@]1(OC)[C@H]3N[C@H]3CN21` (stereo partly drawn) [Compound 30, 7-N--(2-sec-butylaminocarbonylthioethyl)mitomycin C], in series [1], the “(CI)c” value was determined as 1.53 and the ED50 stood at 9.6 mg/kg. Further, in series [2], the “(ILSmax)c” value is listed as 1.60; the “(TI)c” value is given as 3.20; the ED (optimal dose, highest survival) was 25 mg/kg; the ED (30% increase of life-span) is 0.65 mg/kg. This compound showed an LD50 at 336 h in series [3] of 37.5 mg/kg.
Regarding `CCC(CC)NC(=O)SCCNC1=C(C)C(=O)C2=C(C1=O)[C@@H](COC(N)=O)[C@@]1(OC)[C@H]3N[C@H]3CN21` [Compound 11, 7-N--[2-(1-ethylpropyl)aminocarbonylthioethyl]mitomycin C], in series [1], the “(CI)c” value is 1.40 and the ED50 was 11.1 mg/kg. In series [2], the “(ILSmax)c” value is given as above 1.47; the “(TI)c” value stood at 1.86; the ED (optimal dose, highest survival) was 25 mg/kg; the ED (30% increase of life-span) worked out at 1.04 mg/kg. The LD50 at 336 h in series [3] came to 45 mg/kg.
Consider `CO[C@@]12[C@H](COC(N)=O)C3=C(C(=O)C(C)=C(NCCSC(=O)NC(C)(C)C)C3=O)N1C[C@@H]1N[C@@H]12` [Compound 5, 7-N--(2-t-butylaminocarbonylthioethyl)mitomicin C], for which, in series [1], the “(CI)c” value was 1.22 and it took a dose of 8.8 mg/kg to reach the 50% effect level (ED50). For the same compound, in series [2], the “(ILSmax)c” value is on record as above 1.17; the “(TI)c” value was determined as 1.80; the ED (optimal dose, highest survival) was determined as 25 mg/kg; the ED (30% increase of life-span) was determined as 1.32 mg/kg. In series [3], the LD50 at 336 h is 30 mg/kg.
Turning to `CO[C@@]12[C@H](COC(N)=O)C3=C(C(=O)C(C)=C(NCCSC(=O)NCC(C)C)C3=O)N1C[C@@H]1N[C@@H]12` [Compound 24, 7-N--(2-isobutylaminocarbonylthioethyl)mitomycin C], in series [1], the “(CI)c” value amounted to 0.89 and the median effective dose (ED50) came out at 9.9 mg/kg. For the same compound, in series [2], the “(ILSmax)c” value worked out at 1.26; the “(TI)c” value is 2.16; the ED (optimal dose, highest survival) stood at 25 mg/kg; the ED (30% increase of life-span) was determined as 0.5 mg/kg. The compound further gave a 50% lethal dose (LD50) at 336 h in series [3] of 22.5 mg/kg.
In the case of `CO[C@@]12[C@H](COC(N)=O)C3=C(C(=O)C(C)=C(NCCSC(=O)NC(COCc4ccccc4)C(C)C)C3=O)N1C[C@@H]1N[C@@H]12` (stereo partly drawn) [Compound 13], in series [1], the “(CI)c” value is on record as 2.01 and it took a dose of 4.5 mg/kg to reach the 50% effect level (ED50). Moreover, in series [2], the “(ILSmax)c” value is listed as above 2.57; the “(TI)c” value came out at 1.96; the ED (optimal dose, highest survival) came to 7.5 mg/kg; the ED (30% increase of life-span) worked out at 0.33 mg/kg. This compound gave an LD50 at 336 h in series [3] of 26.3 mg/kg.
`CO[C@@]12[C@H](COC(N)=O)C3=C(C(=O)C(C)=C(NCCSC(=O)NC4CCN(Cc5ccccc5)CC4)C3=O)N1C[C@@H]1N[C@@H]12` [Compound 12, 7-N--[2-(1-benzylpiperidine-4-yl)aminocarbonylthioethyl]mitomycin C]: in series [1], the “(CI)c” value is reported as 1.61 and the 50% effect level (ED50) was put at a dose of 8.1 mg/kg. Moreover, in series [2], the “(ILSmax)c” value is above 1.47; the “(TI)c” value is above 1.10; the ED (optimal dose, highest survival) amounted to 12.5 mg/kg; the ED (30% increase of life-span) is below 0.78 mg/kg. The same compound came in with a median lethal dose (LD50) at 336 h in series [3] of 37.5 mg/kg.
Turning to `COC(=O)[C@@H](NC(=O)SCCNC1=C(C)C(=O)C2=C(C1=O)[C@@H](COC(N)=O)[C@@]1(OC)[C@H]3N[C@H]3CN21)C(C)C` [Compound 9, 7-N--[2-((S)--1-methoxycarbonyl-2-methylpropyl)-aminocarbonylthioethyl]mitomycin C], in series [1], the “(CI)c” value came out at 0.81 and the ED50 was 15.9 mg/kg. For the same compound, in series [2], the “(ILSmax)c” value was above 1.54; the “(TI)c” value was found to be 0.92; the ED (optimal dose, highest survival) was determined as 12.5 mg/kg; the ED (30% increase of life-span) amounted to 0.84 mg/kg. In series [3], the LD50 at 336 h worked out at 37.5 mg/kg.
Take `CO[C@@]12[C@H](COC(N)=O)C3=C(C(=O)C(C)=C(NCCSC(=O)NC(C)C)C3=O)N1C[C@@H]1N[C@@H]12` [Compound 7, 7-N--(2-isopropylaminocarbonylthioethyl)mitomycin C]: in series [1], the “(CI)c” value was determined as 2.29 and the 50% effect level (ED50) was put at a dose of 7 mg/kg. Moreover, in series [2], the “(ILSmax)c” value is above 1.76; the “(TI)c” value is 2.48; the ED (optimal dose, highest survival) is 12.5 mg/kg; the ED (30% increase of life-span) is 0.77 mg/kg. In series [3], the median lethal dose (LD50) at 336 h is 45 mg/kg.
On to `CO[C@@]12[C@H](COC(N)=O)C3=C(C(=O)C(C)=C(NCCSC(=O)N4CCCCC4)C3=O)N1C[C@@H]1N[C@@H]12` [Compound 42, 7-N--(2-piperidinocarbonylthioethyl)mitomycin C], for which, in series [1], the “(CI)c” value came to 1.14 and the ED50 came out at 9.34 mg/kg. For the same compound, in series [3], the median lethal dose (LD50) at 336 h was 33.8 mg/kg.
With `CO[C@@]12[C@H](COC(N)=O)C3=C(C(=O)C(C)=C(NCCSC(=O)N4CCCC4)C3=O)N1C[C@@H]1N[C@@H]12` [Compound 21, 7-N--(2-pyrrolidinocarbonylthioethyl)mitomycin C], in series [1], the “(CI)c” value is listed as 1.44 and the ED50 is 8.4 mg/kg. Also, the 50% lethal dose (LD50) at 336 h in series [3] worked out at 37.5 mg/kg.
For `CO[C@@]12[C@H](COC(N)=O)C3=C(C(=O)C(C)=C(NCCSC(=O)N4CCC[C@H]4C(N)=O)C3=O)N1C[C@@H]1N[C@@H]12` [Compound 19, 7-N--[2-((S)--2-carbamoylpyrrolidino)carbonylthioethyl]mitomycin C] the same measures were 1.46, 19.6 mg/kg and 75 mg/kg.
For `CCCCNC(=O)SCCNC1=C(C)C(=O)C2=C(C1=O)[C@@H](COC(N)=O)[C@@]1(OC)[C@H]3N[C@H]3CN21` [Compound 28, 7-N--(2-n-butylaminocarbonylthioethyl)mitomycin C] the same measures were 1.73, 9.9 mg/kg and 43.8 mg/kg.
For `CO[C@@]12[C@H](COC(N)=O)C3=C(C(=O)C(C)=C(NCCSC(=O)N4CCOCC4)C3=O)N1C[C@@H]1N[C@@H]12` [Compound 33, 7-N--(2-morpholinocarbonylthioethyl)mitomycin C] the same measures were 1.23, 17.8 mg/kg and 52.5 mg/kg.
Take `CNC(=S)SCCNC1=C(C)C(=O)C2=C(C1=O)[C@@H](COC(N)=O)[C@@]1(OC)[C@H]3N[C@H]3CN21` [Compound 25, 7-N--(2-methylaminothiocarbonylthioethyl)mitomycin C]: in series [1], the “(CI)c” value turned out to be 1.96 and it took a dose of 10.5 mg/kg to reach the 50% effect level (ED50). This compound registered a 50% lethal dose (LD50) at 336 h in series [3] of 52.5 mg/kg.
In the case of `CO[C@@]12[C@H](COC(N)=O)C3=C(C(=O)C(C)=C(NCCSC(=O)NC(C)(C)C(=O)OC(C)(C)C)C3=O)N1C[C@@H]1N[C@@H]12` [Compound 34, 7-N--[2-(1-methyl-1-t-butoxycarbonylethyl)-aminocarbonylthioethyl]mitomycin C], in series [1], the “(CI)c” value was determined as 1.14 and the median effective dose (ED50) stood at 13.7 mg/kg. In series [3], this compound returned an LD50 at 336 h of 37.5 mg/kg.
